# Laboratory results as given in US11413278B2, “Compounds and methods for promoting stress resistance” (priority 2015, dated 2022).
# Entries after “also recorded” stand apart in the source; their conditions may differ. Read-outs that look alike come from different tables or passages of the source.
# Legend:
# [1] = test system: WI-38 cells; test: Long-term effects on cell viability (5 days, ATP; morphology, PI imaging); type: cell-based; conditions: 10 μM; for Luminescence signal for ATP measurement, day-1 Average / Luminescence signal for ATP measurement, day-2 Average / Luminescence signal for ATP measurement, day-3 Average / Luminescence signal for ATP measurement, day-4 Average / Luminescence signal for ATP measurement, day-5 Average / viability at 10 µM: Batch 1; for Luminescence signal for ATP measurement, day-1 Average / Luminescence signal for ATP measurement, day-2 Average / Luminescence signal for ATP measurement, day-3 Average / Luminescence signal for ATP measurement, day-4 Average / Luminescence signal for ATP measurement, day-5 Average: n = 6, day-0 luminescence = 320956 ± 24708; for viability at 10 µM: Homo sapiens, WI-38, 120 h, DMSO ctrl = 100.0%, read-out: ATP luminescence by day-5 normalized; for Luminescence signal for ATP measurement, day-5 Average / viability at 10 µM: day-5;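 as to Luminescence signal for ATP measurement, day-2 Average: compounds at 10 µM with ATP read daily over 5 days of treatment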;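 as to Luminescence signal for ATP measurement, day-3 Average: compounds at 10 µM with ATP read daily over 5 days of treatment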;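 as to Luminescence signal for ATP measurement, day-4 Average: compounds at 10 µM with ATP read daily over 5 days of treatment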;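 as to Luminescence signal for ATP measurement, day-5 Average: compounds at 10 µM with ATP read daily over 5 days of treatment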
# [2] = test system: WI-38 cells; conditions: for Percentage of propidium iodide-positive dead cells (no H2O2 stress treatment), at 10 uM: negative control 0.41% ± 0.23%
# Experimental: WI-38 cells were seeded on 384-well plates for 24 hrs and then incubated with small molecules for 24 hrs. […] Images were collected on an INCell Analyzer 2000 (GE) and analyzed with the Developer software.
# [3] = test system: mTOR; test: mTOR inhibition (RPS6 phosphorylation status), In-Cell Western; type: cell-based, human; conditions: for Exp. 1, normalized reduction in p-RPS6/RPS6 ratio / Exp. 3, normalized reduction in p-RPS6/RPS6 ratio: n=4
# In short: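 WI-38 cells exposed to compounds at 5, 10 and 20 μM for 24 hrs. Fixed cells co-stained overnight at 4° C with anti-RPS and anti-pRPS6 (Ser-235/236) antibodies, then DyLight 680/800 secondaries. Phospho-RPS6 relative to total RPS6 read by near-infrared In-Cell Western imaging.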
# [4] = test system: human dermal fibroblast (HDF) primary cells; test: H2O2-resistance in primary human dermal fibroblasts; type: cell-based; conditions: for fold induction at 10 µM: Homo sapiens; for Assay 6: H2O2-resistant, at 10 uM, human dermal fibroblast (HDF) primary cells: YES/NO
# [5] = test system: WI-38 cells; test: CdCl2 (cadmium) resistance assay; type: cell-based, human; conditions: for fold induction at 10 µM: Homo sapiens, 12 h, normalized ATP measurement; for Assay 4: H2O2- & Cd-resistant / Assay 2: Cadmium-resistant: YES/NO; for Assay 2: Cadmium-resistant: * indicates partial
# In short: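 WI-38 cells were given compounds at five final concentrations (0.25–20 μM) in triplicate, followed by cadmium or MMS for 12 h. For MMS, medium was switched from OptiMEM+10% FBS to serum-free DMEM+2% BSA when compounds were added, 24 h before stressor. Two independent assays were run, analysed by global variance t-test.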
# [6] = Experiment 1, HDF cells, read-out: Experiment 1, HDF cells (under H2O2 stress treatment), at 10 uM (fold change)
# [7] = Experiment 2, HDF cells, read-out: Experiment 2, HDF cells (under H2O2 stress treatment), at 10 uM (fold change)
# [8] = Exp. 1, WI-38 cells, read-out: Exp. 1, under Cd2Cl2 stress treatment, at 10 uM (fold change)
# [9] = Exp. 2, WI-38 cells, read-out: Exp. 2, under Cd2Cl2 stress treatment, at 10 uM (fold change)
# [10] = score in summary of 38 core set hits
# [11] = WI-38 cells, 10 μM, both stressors
SMILES,"Luminescence signal for ATP measurement, day-1 Average [1]","Luminescence signal for ATP measurement, day-2 Average [1]","Luminescence signal for ATP measurement, day-3 Average [1]","Luminescence signal for ATP measurement, day-4 Average [1]","Luminescence signal for ATP measurement, day-5 Average [1]",viability at 10 µM [1] [%],"O = Potential toxicity ([1]; human, 5 days)","Q = Potential toxicity ([1]; human, 5 days)","Percentage of propidium iodide-positive dead cells (no H2O2 stress treatment), at 10 uM [2]",G = mTOR down-regulation ([3]; 2-point score),G = mTOR down-regulation ([3]; summary score),"fold induction at 10 µM [4, 6]","fold induction at 10 µM [4, 7]","Assay 6: H2O2-resistant, at 10 uM, human dermal fibroblast (HDF) primary cells [4]","fold induction at 10 µM [5, 8]","fold induction at 10 µM [5, 9]","A = Cadmium resistant [5, 10]",A = Cadmium resistant ([5]; summary score),C = H2O2- & Cd-resistant ([5]; summary score),Assay 4: H2O2- & Cd-resistant [5],also measured
CCc1ccc(Oc2nc3ccccn3c(=O)c2/C=C(\C#N)C(=O)NCc2ccco2)cc1 [Gr-5B],529430,736318,867160,1091073,1104305,108,0,0,"0.45% ± 0.15%,",0,0,9.16,13.3,YES,1.29,1.36,0,0,0,,
CNC(=O)/C(C#N)=C/c1c(Oc2ccc(C(C)(C)C)cc2)nc2ccccn2c1=O [Gr-5D],498641,763806,920681,1052285,1110868,108,0,0,"0.51% ± 0.18%,",0,0,0.18,2.66,YES,,,0,1,1,YES,Assay 2: Cadmium-resistant [5]: YES
Cc1cc(N)n(-c2ccccc2C(=O)O)n1 [Gr-6A],581273,717601,804970,1007061,986943,96.1,0,0,"0.41% ± 0.17%,",0,0,10.3,39.3,YES,2.46,2.36,1,1,1,YES,"CdCl2-resistant [5]: YES; H2O2- & CdCl2-resistant [5]: YES; CdCl2-resistant ([5]; WI-38 cells, 10 μM): YES; H2O2- & CdCl2-resistant [5, 11]: YES; Assay 2: Cadmium-resistant [5]: YES"
O=C(/C=C/c1cn(-c2ccccc2)nc1-c1cccnc1)c1ccccc1 [Gr-6B],467756,641901,736245,969598,953988,92.9,0,0,"0.46% ± 0.25%,",0,0,3.6,57.6,YES,5.07,2.65,1,1,1,YES,"CdCl2-resistant [5]: YES; H2O2- & CdCl2-resistant [5]: YES; CdCl2-resistant ([5]; WI-38 cells, 10 μM): YES; H2O2- & CdCl2-resistant [5, 11]: YES; Assay 2: Cadmium-resistant [5]: YES"
N=C1S/C(=C\c2cn(-c3ccccc3)nc2-c2cccs2)C(=O)N1c1nccs1 [Gr-6C],435273,542716,574765,624471,548865,53.5,0,1,"0.66% ± 0.26%,",0,0,0.01,50.6,YES,,,0,0,0,,
O=C(NCc1cccnc1)/C(=C\c1ccc(Br)cc1)S(=O)(=O)c1ccccc1 [Gr-7B],311883,56498,40001,44298,40768,4,1,1,,2,2,3.71,3.35,YES,0.12,0.26,0,1,1,YES,"Reduction of ATP content after 5 days of continuous incubation ([1]; human, 5 days): more than 40%; PI cell-death imaging without H2O2 (indicating potential toxicity) ([2]; Assay 8(k), without H2O2, at 10 uM): YES; PI-positive dead cells under normal conditions ([2]; WI-38, no H2O2, control 0.4±0.2%): 3.6%±0.7%; mTOR down-regulation by p-RPS6 assays ([3]; Assay 14(q), at 5 uM, 10 uM & 20 uM): YES; Exp. 1, normalized reduction in p-RPS6/RPS6 ratio ([3]; Exp. 1, In-Cell Western): ~67% (−), at 20 μM; Exp. 1, normalized reduction in p-RPS6/RPS6 ratio ([3]; Exp. 1, at 10 μM, In-Cell Western): ~65% (−), at 10 μM;; Exp. 3, normalized reduction in p-RPS6/RPS6 ratio ([3]; Exp. 3, In-Cell Western): ~53% (−), at 20 μM; Exp. 3, normalized reduction in p-RPS6/RPS6 ratio ([3]; Exp. 3, at 5 μM, In-Cell Western): ~48% (−), at 5 μM;; Exp. 3, normalized reduction in p-RPS6/RPS6 ratio ([3]; Exp. 3, at 10 μM, In-Cell Western): ~45% (−), at 10 μM;; mTOR inhibition (p-RPS6/RPS6), qualitative ([3]; In-Cell Western): mTOR-inhibiting activities; also recorded: consistently reduced the ratios; Assay 2: Cadmium-resistant [5]: YES"
